Assay results from paper PMC11012124, “Synthesis of Novel Triazine-Based Chalcones and 8,9-dihydro-7H-pyrimido[4,5-b][1,4]diazepines as Potential Leads in the Search of Anticancer, Antibacterial and Antifungal Agents” (International Journal of Molecular Sciences, 2024).

Assays:
EKVX = assay: cells; conditions: Homo sapiens, 48 h; for CC50: read-out: LC50
ACHN = assay: cells; conditions: Homo sapiens, 48 h; for CC50: read-out: LC50
T-47D = assay: cells; conditions: Homo sapiens, T47D, 48 h; for CC50: read-out: LC50
[1] = Hemolytic activity, spectrophotometric; assay type: cell-based, human; conditions: human, human red blood cells (huRBC), 5% hematocrit, 200 μg/mL, 37 °C
MALME-3M = assay: cells; conditions: Homo sapiens, 48 h; for CC50: read-out: LC50
60 cancer cell lines = assay: NCI-60 one-dose screen (10 μM); assay type: cell-based; conditions: Homo sapiens; one dose of 10 μM, mean over 60 cancer cell lines; read-out: Mean Growth Percent (MGP)
Excerpt: Additionally, the mean of the growth percentages (MGP) of each compound against all the 60 cancer cell lines is also reported, which is used as one of the selection criteria to continue with tests at five concentration doses.

UO-31 = assay: cells; conditions: Homo sapiens, UO-31, 48 h; for CC50: read-out: LC50
M14 = assay: cells; conditions: Homo sapiens, M14, 48 h; for CC50: read-out: LC50
NCI-H322M = assay: cells; conditions: Homo sapiens, 48 h; for CC50: read-out: LC50
HCC-2998 = assay: cells; conditions: Homo sapiens, HCC 2998, 48 h; for CC50: read-out: LC50
PC-3 = assay: cells; conditions: Homo sapiens, PC-3, 48 h; for CC50: read-out: LC50
MDA-MB-231/ATCC = assay: cells; conditions: Homo sapiens, MDA-MB-231, 48 h; for CC50: read-out: LC50
RPMI-8226 = assay: cells; conditions: Homo sapiens, RPMI-8226, 48 h; for CC50: read-out: LC50
HCT-15 = assay: cells; conditions: Homo sapiens, HCT-15, 48 h; for CC50: read-out: LC50
HS 578T = assay: cells; conditions: Homo sapiens, 48 h; for CC50: read-out: LC50
HOP-62 = assay: cells; conditions: Homo sapiens, HOP-62, 48 h; for CC50: read-out: LC50
KM12 = assay: cells; conditions: Homo sapiens, KM12, 48 h; for CC50: read-out: LC50
U251 = assay: cells; conditions: Homo sapiens, U-251, 48 h; for GI50: U251, 48 h; for CC50: read-out: LC50
SF-539 = assay: cells; conditions: Homo sapiens, SF-539, 48 h; for CC50: read-out: LC50, SF-539, 48 h
BT-549 = assay: cells; conditions: Homo sapiens, BT-549, 48 h; for CC50: read-out: LC50
MOLT-4 = assay: cells; conditions: Homo sapiens, MOLT-4, 48 h
SK-MEL-28 = assay: cells; conditions: Homo sapiens, SK-MEL-28, 48 h; for CC50: read-out: LC50
UACC-62 = assay: cells; conditions: Homo sapiens, UACC-62, 48 h; for CC50: read-out: LC50
COLO 205 = assay: cells; conditions: Homo sapiens, COLO 205, 48 h; for CC50: read-out: LC50
HCT-116 = assay: cells; conditions: Homo sapiens, HCT-116, 48 h; for CC50: read-out: LC50
RXF 393 = assay: cells; conditions: Homo sapiens, RXF 393, 48 h; for CC50: read-out: LC50
HT29 = assay: cells; conditions: Homo sapiens, HT-29, 48 h; for CC50: read-out: LC50
SK-OV-3 = assay: cells; conditions: Homo sapiens, SK-OV-3, 48 h; for CC50: read-out: LC50
A549/ATCC = assay: cells; conditions: Homo sapiens, A549, 48 h; for CC50: read-out: LC50
OVCAR-8 = assay: cells; conditions: Homo sapiens, OVCAR-8, 48 h; for CC50: read-out: LC50
NCI-H522 = assay: cells; conditions: Homo sapiens, NCI-H522, 48 h; for CC50: read-out: LC50
SW-620 = assay: cells; conditions: Homo sapiens, SW-620, 48 h; for CC50: read-out: LC50
CAKI-1 = assay: cells; conditions: Homo sapiens, CAKI-1, 48 h; for CC50: read-out: LC50
SNB-75 = assay: cells; conditions: Homo sapiens, SNB-75, 48 h; for CC50: read-out: LC50
SNB-19 = assay: cells; conditions: Homo sapiens, SNB-19, 48 h; for CC50: read-out: LC50
DU-145 = assay: cells; conditions: Homo sapiens, DU-145, 48 h; for CC50: read-out: LC50
MDA-MB-468 = assay: cells; conditions: Homo sapiens, MDA-MB-468, 48 h; for CC50: read-out: LC50

In the case of CN(C)c1nc(NCCNS(=O)(=O)c2ccc(C(=O)/C=C/c3ccccc3)cc2)nc(N2CCOCC2)n1 [23a], the GI50 (EKVX) is reported as 14.7 µM, the CC50 (EKVX) is reported as 63.8 µM and the GI50 (ACHN) is reported as 18.2 µM. For the same molecule, the CC50 (ACHN) was 72.2 µM, the GI50 (T-47D) was 16 µM and the CC50 (T-47D) was 87.4 µM. For the same molecule, the hemolysis at 24 h, 200 µg/mL [1] was 0.7%, the GI50 (MALME-3M) was 15.2 µM and the CC50 (MALME-3M) was 56.5 µM. It also gave an activity at 10 µM (60 cancer cell lines) of 61.9%, a GI50 (UO-31) of 11.2 µM and a CC50 (UO-31) of 55.7 µM. It also gave a GI50 (M14) of 14.6 µM, a CC50 (M14) of 68.5 µM and a GI50 (NCI-H322M) of 14.8 µM. The CC50 (NCI-H322M) was 56.5 µM, the GI50 (HCC-2998) was 16.7 µM and the CC50 (HCC-2998) was 57.7 µM. It also gave a GI50 (PC-3) of 8.63 µM, a CC50 (PC-3) of 58.9 µM and a GI50 (MDA-MB-231/ATCC) of 13.9 µM. It also gave a CC50 (MDA-MB-231/ATCC) of 54.7 µM, a GI50 (RPMI-8226) of 3.25 µM and a CC50 (RPMI-8226) of over 100 µM. For the same molecule, the GI50 (HCT-15) was 5.21 µM, the CC50 (HCT-15) was 61.7 µM and the GI50 (HS 578T) was 17.1 µM. The CC50 (HS 578T) was over 100 µM, the GI50 (HOP-62) was 16.4 µM and the CC50 (HOP-62) was 62.7 µM. For the same molecule, the GI50 (KM12) was 2 µM, the CC50 (KM12) was 8.93 µM and the GI50 (U251) was 11.7 µM. It also gave a CC50 (U251) of 57.2 µM, a GI50 (SF-539) of 11.1 µM and a CC50 (SF-539) of 53.2 µM. The GI50 (BT-549) was 11.2 µM, the CC50 (BT-549) was 50 µM and the GI50 (MOLT-4) was 4.27 µM. The CC50 (MOLT-4; read-out: LC50) was over 100 µM, the GI50 (SK-MEL-28) was 17.2 µM and the CC50 (SK-MEL-28) was 63.9 µM. For the same molecule, the GI50 (UACC-62) was 12 µM, the CC50 (UACC-62) was 52.3 µM and the GI50 (COLO 205) was 20.2 µM. For the same molecule, the CC50 (COLO 205) was 80.7 µM, the GI50 (HCT-116) was 1.82 µM and the CC50 (HCT-116) was 7.1 µM. It also gave a GI50 (RXF 393) of 7.87 µM, a CC50 (RXF 393) of 55.8 µM and a GI50 (HT29) of 3.8 µM. The CC50 (HT29) was 43.9 µM, the GI50 (SK-OV-3) was 15.6 µM and the CC50 (SK-OV-3) was 56.8 µM. The GI50 (A549/ATCC) was 13.6 µM, the CC50 (A549/ATCC) was 59.1 µM and the GI50 (OVCAR-8) was 16.4 µM. The CC50 (OVCAR-8) was 61.7 µM, the GI50 (NCI-H522) was 13.6 µM and the CC50 (NCI-H522) was 54.1 µM. The GI50 (SW-620) was 3.41 µM, the CC50 (SW-620) was 42.7 µM and the GI50 (CAKI-1) was 12.2 µM. The CC50 (CAKI-1) was 49.9 µM, the GI50 (SNB-75) was 5.49 µM and the CC50 (SNB-75) was 44.6 µM. It also gave a GI50 (SNB-19) of 14.8 µM, a CC50 (SNB-19) of 57.3 µM and a GI50 (DU-145) of 15.1 µM. For the same molecule, the CC50 (DU-145) was 53.3 µM, the GI50 (MDA-MB-468) was 4.17 µM and the CC50 (MDA-MB-468) was 49.9 µM.

CN(C)c1nc(NCCNS(=O)(=O)c2ccc(C3=Nc4c(N)nc(N)nc4NC(c4ccc(Cl)cc4)C3)cc2)nc(Nc2ccc(F)cc2)n1 (centres unmarked) [31e] showed a GI50 (EKVX) of 5.05 µM, a CC50 (EKVX) of over 100 µM and a GI50 (ACHN) of over 100 µM. It also gave a CC50 (ACHN) of over 100 µM, a GI50 (T-47D) of 7.93 µM and a CC50 (T-47D) of over 100 µM. It also gave a hemolysis at 24 h, 200 µg/mL [1] of 2.3%, a GI50 (MALME-3M) of 3.86 µM and a CC50 (MALME-3M) of 19.2 µM. The activity at 10 µM (60 cancer cell lines) was 30.8%, the GI50 (UO-31) was over 100 µM and the CC50 (UO-31) was over 100 µM. For the same molecule, the GI50 (M14) was 3.15 µM, the CC50 (M14) was 11.5 µM and the GI50 (NCI-H322M) was over 100 µM. It also gave a CC50 (NCI-H322M) of over 100 µM, a GI50 (HCC-2998) of 3.14 µM and a CC50 (HCC-2998) of 18.4 µM. The GI50 (PC-3) was 3.44 µM, the CC50 (PC-3) was over 100 µM and the GI50 (MDA-MB-231/ATCC) was 3.73 µM. The CC50 (MDA-MB-231/ATCC) was 65.7 µM, the GI50 (RPMI-8226) was 3.19 µM and the CC50 (RPMI-8226) was over 100 µM. It also gave a GI50 (HCT-15) of over 100 µM, a CC50 (HCT-15) of over 100 µM and a GI50 (HS 578T) of 7.15 µM. The CC50 (HS 578T) was over 100 µM, the GI50 (HOP-62) was over 100 µM and the CC50 (HOP-62) was over 100 µM. The GI50 (KM12) was 3.98 µM, the CC50 (KM12) was over 100 µM and the GI50 (U251) was 5.14 µM. The CC50 (U251) was over 100 µM, the GI50 (SF-539) was 3.3 µM and the CC50 (SF-539) was over 100 µM. For the same molecule, the GI50 (BT-549) was 3.96 µM, the CC50 (BT-549) was 28.7 µM and the GI50 (MOLT-4) was 2.68 µM. It also gave a GI50 (SK-MEL-28) of 8.22 µM, a CC50 (SK-MEL-28) of over 100 µM and a GI50 (UACC-62) of 6.46 µM. It also gave a CC50 (UACC-62) of over 100 µM, a GI50 (COLO 205) of 5.65 µM and a CC50 (COLO 205) of 25.6 µM. The GI50 (HCT-116) was 3.77 µM, the CC50 (HCT-116) was over 100 µM and the GI50 (RXF 393) was 2.27 µM. For the same molecule, the CC50 (RXF 393) was 8.75 µM, the GI50 (HT29) was 2.68 µM and the CC50 (HT29) was 7.54 µM. For the same molecule, the GI50 (SK-OV-3) was over 100 µM, the CC50 (SK-OV-3) was over 100 µM and the GI50 (A549/ATCC) was over 100 µM. It also gave a CC50 (A549/ATCC) of over 100 µM, a GI50 (OVCAR-8) of over 100 µM and a CC50 (OVCAR-8) of over 100 µM. For the same molecule, the GI50 (NCI-H522) was 16 µM, the CC50 (NCI-H522) was over 100 µM and the GI50 (SW-620) was 5.95 µM. For the same molecule, the CC50 (SW-620) was over 100 µM, the GI50 (CAKI-1) was 8.07 µM and the CC50 (CAKI-1) was over 100 µM. The GI50 (SNB-75) was 3.76 µM, the CC50 (SNB-75) was over 100 µM and the GI50 (SNB-19) was 5.67 µM. The CC50 (SNB-19) was over 100 µM, the GI50 (DU-145) was over 100 µM and the CC50 (DU-145) was over 100 µM. For the same molecule, the GI50 (MDA-MB-468) was 1.92 µM and the CC50 (MDA-MB-468) was 4.92 µM.
